# Results reported in patent US7763596B2, “Selective glucocorticoid receptor agonists” (The University of Manchester, priority 2000, dated 2010).
# Entries after “also recorded” stand apart in the source; their conditions may differ.
# Assays:
# glucocorticoid receptor [1] = biological target: T1, glucocorticoid receptor (Homo sapiens, UniProt P04150); assay: Transrepression assay using artificially expressed glucocorticoid receptor and P65 in the COS 7 cell line (NRE luciferase); format: cell-based; parameters: expressed in transfected cells; host or cells: COS 7 (African green monkey kidney, deficient in endogenous GR); conditions: 1, 10 and 100 nM
# T1 sequence (P04150 1-777): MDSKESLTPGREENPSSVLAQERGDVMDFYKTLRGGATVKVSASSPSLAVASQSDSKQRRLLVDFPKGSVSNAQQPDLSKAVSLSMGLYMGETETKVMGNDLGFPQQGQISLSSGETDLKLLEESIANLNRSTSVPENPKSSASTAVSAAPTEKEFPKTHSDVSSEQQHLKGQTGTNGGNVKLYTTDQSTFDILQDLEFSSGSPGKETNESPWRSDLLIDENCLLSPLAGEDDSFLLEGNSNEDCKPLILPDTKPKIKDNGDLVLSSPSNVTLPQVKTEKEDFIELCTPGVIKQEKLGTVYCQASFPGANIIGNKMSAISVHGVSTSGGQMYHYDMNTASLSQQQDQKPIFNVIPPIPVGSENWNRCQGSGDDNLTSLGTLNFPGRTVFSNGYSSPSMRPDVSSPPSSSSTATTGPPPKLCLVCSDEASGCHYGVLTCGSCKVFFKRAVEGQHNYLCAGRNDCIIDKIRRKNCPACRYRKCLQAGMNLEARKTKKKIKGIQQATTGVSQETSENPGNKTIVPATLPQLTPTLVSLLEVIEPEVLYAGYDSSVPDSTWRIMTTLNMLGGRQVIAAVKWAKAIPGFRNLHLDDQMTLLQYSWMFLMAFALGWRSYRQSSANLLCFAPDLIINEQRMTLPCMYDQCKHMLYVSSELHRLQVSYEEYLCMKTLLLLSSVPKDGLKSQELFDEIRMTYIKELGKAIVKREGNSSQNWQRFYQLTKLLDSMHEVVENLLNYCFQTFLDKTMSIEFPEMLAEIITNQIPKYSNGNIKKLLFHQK
# Protocol: (§1) All transfections were performed using lipofectamine plus (Gibco BRL), according to the manufacturers' instructions, as previously described^1. Briefly, all cells were seeded at 5×10^5 per 10 cm tissue culture plate 18 hours before transfection, the next day the relevant plasmids were mixed with serum free medium and “Plus” reagent (Gibco BRL) and incubated for 15 mins, lipofectamine reagent was added and the mix was incubated for a further 15 mins, this mix was added to the cells on serum free medium in the 10 cm tissue culture plates and left for 3 hours, the cells were then trypsinised and divided into 24 well plates, the cells were left to recover overnight and were treated with steroid for 16 hours before harvest. All experiments were performed from one transfection in triplicate and on separate occasions with similar results.
# (§2) The firefly luciferase gene catalyses the production of light from the substrate luciferin. When plasmid constructs containing this gene are transfected into cell lines the activity of the gene can be assessed by the intensity of the luminesence. The luciferase assay yields luminescence through an ATP-dependent oxidation of luciferin the amount of light produced can be measured by a luminometer and is a measure of gene activity (Davis, 1996). Light intensity was measured in a Luminometer (LB 9501, Berthold). The light intensity should be proportional to luciferase concentration in the range of 10^−16M (10 μg/L) to 10^−8M (1 mg/L). To measure the luminescence of the treated cells 150 μl of 1× reporter lysis buffer (RLB: 25 mM Tris phosphate pH7.8, 10 mM MgCl2, 15% Glycerol, 1% Triton, 1 mM EDTA) was added to the 24 well plates to lyse the cells and incubated at room temperature for 30 mins whilst being shaken. Then 100 μl of the room temperature cell extract were mixed with 100 μl of room temperature Luciferase Assay Reagent (LAR: 1 mM ATP, 0.3 mM D-Luciferin, 66% RLB). This reaction was mixed in a luminometer (LB 9501, Berthold) and the light produced was measured for a period of 5 seconds.
# To perform this assay the GR and p65 were artificially expressed in a cell line lacking GR and deficient in endogenous P65. The ability of P65 to activate an NFkB response element (NRE) “driving” a luciferase reporter gene could then be repressed by GR in a ligand dependent manner and, therefore, used to measure transrepression.
# COS7 cells were transfected with 1 μg pcDNA3-GR and 3 μg NRE-Luc and 200 ng p65 per 10 cm tissue culture dish. The cells were plated out in to 24 well plates after transfection and left for 18 hours to recover before the steroids of FIGS. 1 and 2A were added. After another 18 hour incubation the cells were lysed and a luciferase assay was performed.
# CEM-C7A cells = assay: Apoptosis assay in CEM-C7A cells (viable cell count, MTS); format: cell-based, human; conditions: CEM C7A cells, 100 nM, three day incubation
# Protocol: The CEM-C7A cell line is a steroid sensitive clone of the CCRF-CEM cell line (ECACC 85112105). This is a T lymphoblastoid cell line with functional endogenous GR.
# Apoptosis (programmed cell death) is mediated by a protein called Bax the transcription of which is primarily controlled by the GR in a ligand dependant manner. To measure the ability of a GR ligand to effect apoptosis a suitable cell line was incubated with ligand and a viable cell count was performed after three days.
# CEM-C7A cells were plated out on to a 96well plate at 5×10^5/well. The steroids of FIGS. 1 and 2A were added immediately to generate a final concentration of 100 nM. After a three day incubation the live cell number in each well was assessed using Celltiter 96 Aqueous Non-Radioactive Cell Proliferation Assay (Promega). This assay is a calorimetric method for determining the number of viable cells in proliferation or chemosensitivity assays.
# Briefly, the assay is composed of solutions of a novel tetrazolium compound (3-(4,5-dimethylthiazol-2-yl)-5-(3-carboxymethoxyphenyl)-2-(4-sulfophenyl)-2H-tetrazolium, MTS) and an electron coupling reagent (phenazine methosulfate; PMS). MTS is bioreduced by cells into a formazan product that is soluble in tissue culture medium. The absorbance of the formazan at 490 nm can be measured directly from 96 well assay plates without additional processing. The conversion of MTS into aqueous, soluble formazan is accomplished by dehydrogenase enzymes found in metabolically active cells. The quantity of formazan product as measured by the amount of 490 nm absorbance is directly proportional to the number of living cells in culture.
# glucocorticoid receptor [2] = biological target: T1, glucocorticoid receptor; assay: Transactivation assay using artificially expressed glucocorticoid receptor in the COS 7 monkey kidney cell line (GRE luciferase); format: cell-based; parameters: expressed in transfected cells; host or cells: COS 7 (African green monkey kidney, deficient in endogenous GR); conditions: for ability to transactivate (luminescence) compared to dexamethasone: 1, 10 and 100 nM, FIGS. 3 and 4; for transactivation potential (luminescence) compared to dexamethasone, repeat experiment: 1, 10, 10 and 500 nM, FIG. 5
# Protocol: as §1, §2
# In this assay the GR was artificially expressed in a cell line lacking endogenous GR and a glucocorticoid response element (GRE) “driving” a luciferase reporter gene was used to measure ligand dependent activation.
# COS7 cells were transfected with 1 μg pcDNA3-GR and 3 μg AH3-Luc per 10 cm tissue culture dish. The cells were plated out in to 24 well plates after transfection and the steroids were added immediately. After 18 hour incubation the cells were lysed and a luciferase assay was performed.
Structure (SMILES),repression of P65 stimulation of an NFkB response element compared with dexamethasone (glucocorticoid receptor [1]),induction of apoptosis (CEM-C7A cells),ability to transactivate (luminescence) compared to dexamethasone (glucocorticoid receptor [2]),"transactivation potential (luminescence) compared to dexamethasone, repeat experiment (glucocorticoid receptor [2])"
CC1CC2C3CCC4=CC(=O)C=CC4(C)C3(F)C(O)CC2(C)C12OC(C)(C)OCC2=O (stereo not shown) [Compound A],less potent than dexamethasone but produced the same maximal response at 100 nM,most potent inducers of apoptosis,,
CC1CC2C3CCC4=CC(=O)C=CC4(C)C3(F)C(O)CC2(C)C1(O)C(=O)COC(=O)c1ccc(F)cc1 (stereo not shown) [Compound D],as potent as dexamethasone,,more active in causing transactivation than dexamethasone,
CCCNC(=O)C1(O)C(C)CC2C3CCC4=CC(=O)C=CC4(C)C3(F)C(O)CC21C (stereo not shown) [Compound G],“left shifted” response and greater maximal repression,apoptosis was induced,much less potent and had a lower maximal effect when compared to dexamethasone,“right shifted response” and a reduced maximum compared to dexamethasone; also recorded: lowest overall maximal response
Cc1ccc(NC(=O)C2(O)C(C)CC3C4CCC5=CC(=O)C=CC5(C)C4(F)C(O)CC32C)cc1 (stereo not shown) [Compound O],failed completely to repress P65 function,,failed to generate a response at any concentration,
CCCCCCNC(=O)OCC(=O)C1(O)C(C)CC2C3CCC4=CC(=O)C=CC4(C)C3(F)C(O)CC21C (stereo not shown) [Compound T],“left shifted” response and greater maximal repression,,,“right shifted response” and a reduced maximum compared to dexamethasone
CC1CC2C3CCC4=CC(=O)C=CC4(C)C3(F)C(O)CC2(C)C1(O)C(=O)NCCCO (stereo not shown) [L],failed completely to repress P65 function,,failed to generate a response at any concentration,
CC1CC2C3CCC4=CC(=O)C=CC4(C)C3(F)C(O)CC2(C)C1(O)C(=O)NCCC(=O)O (stereo not shown) [Q],no effect at 1 and 10 nM with only a negligible repression at 100 nM,not,failed to generate a response at any concentration,
CCCOC(=O)C1(O)C(C)CC2C3CCC4=CC(=O)C=CC4(C)C3(F)C(O)CC21C (stereo not shown) [R],failed completely to repress P65 function,,failed to generate a response at any concentration,
